Laboratory results as given in patent US20100113607A1, “Pharmaceutical Compositions” (priority 2000, published 2010).

System: onychomycosis
Assay: Topical treatment of a laser-perforated nail of a patient suffering from onychomycosis
Format: in vivo, human
Details: composition containing 10% terbinafine by total weight, administered to laser-perforated nail, once daily for 12 weeks
Description: A composition containing 10% terbinafine based on the total weight of the composition is prepared and administered to a laser-perforated nail of a patient suffering from onychomycosis once daily for 12 weeks.

CN(C/C=C/C#CC(C)(C)C)Cc1cccc2ccccc12 [terbinafine]
clinical effectiveness: progress of clinical effectiveness is seen with growth of the healthy nail
